Results on 1 compound are retold here after US12264185B2, “Stabilized BCL9 peptides for treatment of aberrant Wnt signaling” (WntRx Pharmaceuticals Inc., priority 2015, dated 2025).

Several values for one entry are separate records, joined by “and”; a condition that tells them apart may be missing. Identical values can stand only once. Like-named read-outs stand apart in the source and are kept apart here. Bounds are passed on as bounds.

The Kd is a measure of binding affinity in units of concentration. One may read the IC50 as the concentration that gives 50% inhibition. The AUC(0-inf) is total exposure, with the tail of the curve extrapolated. A lower AUC(0-inf) goes with low exposure. Usually AUC(0-t) stands for the area under the concentration-time curve up to a stated or last time point. For orientation: Tmax means the time from dosing to the highest level. In general, Cmax refers to the peak of the concentration-time curve.

One data set deals with T1, β-catenin (Homo sapiens, UniProt P35222).
T1 sequence (P35222 1-781): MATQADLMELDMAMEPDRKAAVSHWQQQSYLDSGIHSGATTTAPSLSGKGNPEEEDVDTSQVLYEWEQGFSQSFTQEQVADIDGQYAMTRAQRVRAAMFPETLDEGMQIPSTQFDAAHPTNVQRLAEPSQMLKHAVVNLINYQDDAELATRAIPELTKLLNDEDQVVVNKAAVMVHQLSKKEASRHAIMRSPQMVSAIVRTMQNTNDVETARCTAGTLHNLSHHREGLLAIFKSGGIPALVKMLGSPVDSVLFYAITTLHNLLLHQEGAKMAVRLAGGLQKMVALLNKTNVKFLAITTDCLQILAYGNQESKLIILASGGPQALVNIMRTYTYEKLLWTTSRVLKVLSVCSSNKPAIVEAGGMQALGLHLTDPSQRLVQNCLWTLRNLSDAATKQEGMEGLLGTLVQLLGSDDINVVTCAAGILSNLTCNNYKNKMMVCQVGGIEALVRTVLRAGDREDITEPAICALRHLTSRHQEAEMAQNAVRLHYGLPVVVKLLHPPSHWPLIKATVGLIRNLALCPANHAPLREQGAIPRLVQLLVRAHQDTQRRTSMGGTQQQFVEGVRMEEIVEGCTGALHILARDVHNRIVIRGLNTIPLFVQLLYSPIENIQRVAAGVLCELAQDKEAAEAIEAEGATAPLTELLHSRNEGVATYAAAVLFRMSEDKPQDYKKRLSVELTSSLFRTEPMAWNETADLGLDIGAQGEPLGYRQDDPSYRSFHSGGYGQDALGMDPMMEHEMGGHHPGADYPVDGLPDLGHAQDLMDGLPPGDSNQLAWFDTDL
Put plainly: HTRF binding assay. To be noted: WX-024 coupled to biotin. The source says: HTRF assays provide a means of assaying protein-protein interactions in a high-throughput format, as discussed in Degorce et al., Curr Chemical Genom. 3, 22-32 (2009). In an HTRF assay to measure a protein-protein interaction, binding of 2 proteins brings an HTRF donor and acceptor fluorophore into close proximity and generates the fluorescence energy transfer (FRET) signal. Each protein of the interaction is associated with the donor or the acceptor by an antibody reaction.
FIG. 6A provides a schematic to depict the basis of the HTRF assay. In the HTRF assay for β-catenin (Cisbio), β-catenin is bound by an XL665-coupled antibody (ab) against β-catenin. See Degorce (2009). β-catenin bound to an XL665-coupled antibody can interact with its binding partners, such as BCL9 or BCL9 peptides.
SA is a high-affinity binding partner to biotin and will tightly bind the SA-europium cryptate to the biotinylated stabilized polypeptides. Europium cryptate is an energy donor for an HTRF reaction. When not closely bound, there is no energy transfer between europium cryptate and XL665.
Histidine-tagged β-catenin, BCL9 peptide labeled with biotin, europium (Eu) labeled monoclonal antibody for histidine tag, and SA-XL665 were used in the HTRF assay. […] The reaction was incubated at room temperature for 1 hour and then the plate was read.
On the technique in general: In TR-FRET formats the signal depends on donor and acceptor labels being close together.

The next data set relates to TGF-beta. As to the kind of experiment: TGF-beta transcription assay (SBE-bla HEK 293T cell line). It counts as cell-based. An excerpt:
In these assays, the trifluoroacetic salt form of WX-024 was used.

For the next data set, the system named is CT26 cells. As to the kind of experiment: cells. The method, then:
CT26 cells were grown in F-bottom plates over 5 days. […] CellTiterGlo (Promega) cell viability assay. […] Doxorubicin is a known inhibitor of cell growth and was included as a control.

The nature of a further data set: in vivo. Conditions: female, balb/c, mouse, ip.
The next data set has as its system Wnt/β-catenin signaling. As to the kind of experiment: GeneBLAzer beta-lactamase Wnt transcription reporter assay, LEF/TCF-bla HCT-116 cells. It counts as cell-based. The source says:
ICG001 was used as a comparison. The GeneBLAzer uses CellSensor™ LEF/TCF-bla HCT-116 cells that contain a beta-lactamase (BLA) reporter gene under the control of the β-catenin/LEF/TCF response element stably integrated into HCT-116 cells, as shown in FIG. 5A. These cells constitutively express beta-lactamase and can be used to detect agonists and antagonists of the Wnt/β-catenin signaling pathway. The GeneBLAzer assay provides a ratiometric reporter response involving a two-color (blue/green) readout of stimulated and unstimulated cells.
LEF/TCF-bla HCT-116 cells were plated in assay medium (Invitrogen) on clear-bottom plates and incubated overnight at 37° C. […] Cells were next incubated with the Wnt agonist, mWnt3a (provided in the GeneBLAzer kit) for 5 hours at 37° C. Substrate mixture (containing LiveBLAzer™ B/G substrate that employs CCF4-AM, a FRET substrate for beta-lactamase) was added to the wells, and the plate was incubated for 2.5 hours at room temperature in the dark. Black-walled, clear-bottom, 384-well plates (Corning Costar) were used with scanning done with a Spectramax M2. Plates were scanned first (Scan 1 in the blue channel) with excitation filter 409/20 nm and emission filter 460/40 nm. Plates were then scanned (Scan 2 in the green channel) with excitation filer 409/20 nm and emission filter 530/30 nm.
For orientation: In a reporter assay the amount or activity of a reporter protein is the signal.

A short description of data set [1]: Preliminary stability study of salt form. It counts as physicochemical. Conditions: trifluroacetic acid salt form, 2-8° C. and room temperature, at least one month.
Data set [2] deals with patient derived colon cancer cells. Put plainly: Patient derived xenograft (PDX) colon cancer model in NOD/SCID mice. Format: in vivo. To be noted: 15 mg/kg i.v. daily. The source says:
To assess whether WX-024 is also applicable to tumor derived from human patients, a xenograft animal model inoculated with patient derived colon cancer cells was exposed to WX-024. Samples derived from four different colon cancer patients were screened for biomarkers that indicate an elevated level of canonical Wnt/β-catenin signaling. […] The samples were also stained for nuclear co-localization of BCL9 and β-catenin. […] Male NOD/SCID mice at about 5 weeks of age were […] with colon cancer cells derived from patient #8. Briefly, the selected CRC tumor samples from FIG. 28A were sliced into 3 mm^3 fragments and subcutaneously implanted onto the right flank of NOD/SCID mice. […] Each moue was given a daily intravenous administration for more than 31 days. […] At the end of the study, the mice were sacrificed and tumor samples were collected.
For orientation: In xenograft studies the graft and the host belong to different species.

Consider `CC[C@H](C)[C@@H]1NC(=O)[C@@](C)(NC(=O)[C@H](CCCNC(=N)N)NC(=O)[C@H](CC(C)C)NC(=O)[C@@H](NC(=O)[C@H](CCC(N)=O)NC(=O)[C@H](CC(C)C)NC(C)=O)[C@@H](C)O)CCCC=CCCC[C@@](C)(C(=O)N[C@@H](CC(C)C)C(=O)N[C@@H](Cc2ccc3ccccc3c2)C(N)=O)NC(=O)[C@H](CCCNC(=N)N)NC(=O)[C@H](CCC(N)=O)NC1=O` [WX-024, LQTLRXaa1IQRXaa2L], for which the equilibrium dissociation constant (Kd) on β-catenin came out at 4.21 nM. Besides, the IC50 was > 10000 nM with TGF-beta (Example 4.5, read-out: IC50, TGF-beta transcription assay); > 3160 nM in the data set on TGF-beta (SBE-bla HEK 293T, TGF-beta 1 stimulation, trifluoroacetic salt form, read-out: IC50 (nM), TGF-beta pathway); > 100 nM in the data set with TGF-beta (summary, Example 6, read-out: IC50, TGF-0 reporter assay); 1750 nM in the data set on CT26 cells; 191 nM and ~200 nM in the data set with Wnt/β-catenin signaling (LEF/TCF-bla HCT-116 cells, read-out: IC50, Wnt transcription); 292 nM in the data set with Wnt/β-catenin signaling (acetate salt form, read-out: IC50, Wnt transcription inhibition). The IC50 in the data set on Wnt/β-catenin signaling (hydrochloric salt, read-out: IC50, Wnt transcription inhibition) stood at 313 nM. Further, the AUC(0-inf) turned out to be 41.1 µg·h/mL in “in vivo” (10 mg/kg), 109 µg·h/mL in the data set “in vivo” (15 mg/kg) and 161 µg·h/mL in the data set “in vivo” (20 mg/kg). For the same compound, the results for the AUC(0-t) in the data set “in vivo” (10 mg/kg), in the data set “in vivo” (15 mg/kg) and in “in vivo” (20 mg/kg) were 37.8 µg·h/mL, 107 µg·h/mL and 160 µg·h/mL, respectively. Also, the values for the Tmax in the data set “in vivo” (10 mg/kg), in “in vivo” (15 mg/kg) and in the data set “in vivo” (20 mg/kg) were 2 h, 3.33 h and 4 h, respectively. Further, the Cmax stood at 8750 ng/mL in “in vivo” (15 mg/kg) and 13700 ng/mL in the data set “in vivo” (20 mg/kg). Also, the stability entry in data set [1] was “stable”. Besides, in data set [2], the “CD44 expression in tumor samples” value is recorded as “capable of reducing CD44 expression”. The “average tumor growth inhibition rate” value in data set [2] (after 31 days of dosing) turned out to be 75.6%.
